Drawing on the supplement of paper PMC10307832, this text covers relative viability for six cell lines.

Assay in all cases: relative viability (nuclei count vs DMSO), 5 days (fraction); higher = more cells survive
Compound in the experiment “CX-5461 + Foretinib”: Cc1cnc(CNC(=O)c2c(=O)c3ccc(N4CCCN(C)CC4)nc3n3c2sc2ccccc23)cn1 [CX-5461] + COc1cc2c(Oc3ccc(NC(=O)C4(C(=O)Nc5ccc(F)cc5)CC4)cc3F)ccnc2cc1OCCCN1CCOCC1 [Foretinib] (partner 0.25 µM)
The procedure, abridged:
(§1)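 Relative viability was taken as the ratio of nuclei in treated wells to nuclei in vehicle wells. Lung cancer cell lines in 1536-well plates received compounds by pin tool one day after seeding, either one drug alone or a fixed anchor-drug dose plus five library-drug doses (not always all listed) in √10 steps. Nuclei were counted on 4× images after 5 days of treatment, and values are medians of duplicate plates.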

Compound in the experiment “CX-5461 + Decitabine”: Cc1cnc(CNC(=O)c2c(=O)c3ccc(N4CCCN(C)CC4)nc3n3c2sc2ccccc23)cn1 [CX-5461] + Nc1ncn([C@H]2C[C@H](O)[C@@H](CO)O2)c(=O)n1 [Decitabine] (partner 2 µM)
The procedure, abridged: as §1

Compound in the experiment “IMD-0354 + Navitoclax”: O=C(Nc1cc(C(F)(F)F)cc(C(F)(F)F)c1)c1cc(Cl)ccc1O [IMD-0354] + CC1(C)CCC(c2ccc(Cl)cc2)=C(CN2CCN(c3ccc(C(=O)NS(=O)(=O)c4ccc(N[C@H](CCN5CCOCC5)CSc5ccccc5)c(S(=O)(=O)C(F)(F)F)c4)cc3)CC2)C1 [Navitoclax] (partner 0.5 µM)
In a few lines: as §1

Compound in the experiment “IMD-0354 + Decitabine”: O=C(Nc1cc(C(F)(F)F)cc(C(F)(F)F)c1)c1cc(Cl)ccc1O [IMD-0354] + Nc1ncn([C@H]2C[C@H](O)[C@@H](CO)O2)c(=O)n1 [Decitabine] (partner 2 µM)
In a few lines: as §1

For the cell line NCI-H2087, the relative viability in the experiment with CX-5461 + Foretinib (first compound 0.01 µM) was 1.17; with CX-5461 + Foretinib (first compound 0.03162 µM), 1.43; in the experiment with CX-5461 + Foretinib (first compound 0.1 µM) it was 1.01; in the experiment with CX-5461 + Foretinib (first compound 0.3162 µM), 1.14; with CX-5461 + Foretinib (first compound 1 µM), 0.787; with CX-5461 + Decitabine (first compound 0.01 µM) it was 0.277. The relative viability with CX-5461 + Decitabine (first compound 0.03162 µM) is 0.306; with CX-5461 + Decitabine (first compound 0.1 µM) it was 0.213; with CX-5461 + Decitabine (first compound 0.3162 µM), 0.288; with CX-5461 + Decitabine (first compound 1 µM), 0.188; with IMD-0354 + Navitoclax (first compound 0.04 µM), 0.918; with IMD-0354 + Navitoclax (first compound 0.1265 µM), 0.815. For the same cell line, the relative viability worked out at 0.363 with IMD-0354 + Navitoclax (first compound 0.4 µM); 0.111 with IMD-0354 + Navitoclax (first compound 1.265 µM); 0.158 with IMD-0354 + Navitoclax (first compound 4 µM); 0.258 in the experiment with IMD-0354 + Decitabine (first compound 0.04 µM); 0.276 with IMD-0354 + Decitabine (first compound 0.1265 µM); 0.188 with IMD-0354 + Decitabine (first compound 0.4 µM). Besides, the relative viability with IMD-0354 + Decitabine (first compound 1.265 µM) came out at 0.111; with IMD-0354 + Decitabine (first compound 4 µM) it was 0.0967.

NCI-H2126: the relative viability in the experiment with CX-5461 + Foretinib (first compound 0.01 µM) amounted to 1.28; with CX-5461 + Foretinib (first compound 0.03162 µM), 1.3; with CX-5461 + Foretinib (first compound 0.1 µM), 1.16; with CX-5461 + Foretinib (first compound 0.3162 µM), 1.39; with CX-5461 + Foretinib (first compound 1 µM), 0.838; with CX-5461 + Decitabine (first compound 0.01 µM) it was 0.573. The relative viability with CX-5461 + Decitabine (first compound 0.03162 µM) amounted to 0.559; with CX-5461 + Decitabine (first compound 0.1 µM) it was 0.618; in the experiment with CX-5461 + Decitabine (first compound 0.3162 µM) it was 0.64; with CX-5461 + Decitabine (first compound 1 µM), 0.567; in the experiment with IMD-0354 + Navitoclax (first compound 0.04 µM), 0.905; with IMD-0354 + Navitoclax (first compound 0.1265 µM), 0.817. The relative viability with IMD-0354 + Navitoclax (first compound 0.4 µM) amounted to 0.673; in the experiment with IMD-0354 + Navitoclax (first compound 1.265 µM), 0.79; with IMD-0354 + Navitoclax (first compound 4 µM), 0.269; with IMD-0354 + Decitabine (first compound 0.04 µM) it was 0.526; with IMD-0354 + Decitabine (first compound 0.1265 µM), 0.59; with IMD-0354 + Decitabine (first compound 0.4 µM), 0.641. Further, the results for the relative viability with IMD-0354 + Decitabine (first compound 1.265 µM) and with IMD-0354 + Decitabine (first compound 4 µM) were 0.594 and 0.306, respectively.

Take NCI-H2170: the relative viability is 0.964 with CX-5461 + Foretinib (first compound 0.01 µM); 1.01 in the experiment with CX-5461 + Foretinib (first compound 0.03162 µM); 0.944 with CX-5461 + Foretinib (first compound 0.1 µM); 1.07 with CX-5461 + Foretinib (first compound 0.3162 µM); 1 in the experiment with CX-5461 + Foretinib (first compound 1 µM); 0.471 with CX-5461 + Decitabine (first compound 0.01 µM). For the same cell line, the relative viability with CX-5461 + Decitabine (first compound 0.03162 µM) is 0.454; in the experiment with CX-5461 + Decitabine (first compound 0.1 µM), 0.493; with CX-5461 + Decitabine (first compound 0.3162 µM), 0.504; with CX-5461 + Decitabine (first compound 1 µM), 0.446; with IMD-0354 + Navitoclax (first compound 0.04 µM), 0.608; with IMD-0354 + Navitoclax (first compound 0.1265 µM), 0.585. The relative viability with IMD-0354 + Navitoclax (first compound 0.4 µM) is 0.562; with IMD-0354 + Navitoclax (first compound 1.265 µM), 0.644; with IMD-0354 + Navitoclax (first compound 4 µM), 0.274; with IMD-0354 + Decitabine (first compound 0.04 µM), 0.467; with IMD-0354 + Decitabine (first compound 0.1265 µM), 0.457; with IMD-0354 + Decitabine (first compound 0.4 µM), 0.37. Moreover, the relative viability with IMD-0354 + Decitabine (first compound 1.265 µM) was 0.443; with IMD-0354 + Decitabine (first compound 4 µM) it was 0.396.

For the cell line NCI-H2347, the relative viability in the experiment with CX-5461 + Foretinib (first compound 0.01 µM) amounted to 0.994; with CX-5461 + Foretinib (first compound 0.03162 µM), 1.11; with CX-5461 + Foretinib (first compound 0.1 µM), 0.947; with CX-5461 + Foretinib (first compound 0.3162 µM) it was 0.842; in the experiment with CX-5461 + Foretinib (first compound 1 µM) it was 0.849; in the experiment with CX-5461 + Decitabine (first compound 0.01 µM) it was 0.628. Moreover, the relative viability with CX-5461 + Decitabine (first compound 0.03162 µM) worked out at 0.638; with CX-5461 + Decitabine (first compound 0.1 µM), 0.625; with CX-5461 + Decitabine (first compound 0.3162 µM), 0.604; in the experiment with CX-5461 + Decitabine (first compound 1 µM), 0.589; with IMD-0354 + Navitoclax (first compound 0.04 µM), 0.818; in the experiment with IMD-0354 + Navitoclax (first compound 0.1265 µM), 0.838. The relative viability with IMD-0354 + Navitoclax (first compound 0.4 µM) is 0.55; with IMD-0354 + Navitoclax (first compound 1.265 µM), 0.35; with IMD-0354 + Navitoclax (first compound 4 µM) it was 0.255; with IMD-0354 + Decitabine (first compound 0.04 µM) it was 0.546; with IMD-0354 + Decitabine (first compound 0.1265 µM), 0.653; with IMD-0354 + Decitabine (first compound 0.4 µM), 0.483. Besides, the relative viability in the experiment with IMD-0354 + Decitabine (first compound 1.265 µM) is 0.491; with IMD-0354 + Decitabine (first compound 4 µM), 0.323.

In the case of NCI-H2405, the relative viability amounted to 1.03 with CX-5461 + Foretinib (first compound 0.01 µM); 1.08 with CX-5461 + Foretinib (first compound 0.03162 µM); 1.04 with CX-5461 + Foretinib (first compound 0.1 µM); 0.952 with CX-5461 + Foretinib (first compound 0.3162 µM); 1.03 with CX-5461 + Foretinib (first compound 1 µM); 0.829 with CX-5461 + Decitabine (first compound 0.01 µM). For the same cell line, the relative viability worked out at 0.779 with CX-5461 + Decitabine (first compound 0.03162 µM); 0.773 with CX-5461 + Decitabine (first compound 0.1 µM); 0.64 in the experiment with CX-5461 + Decitabine (first compound 0.3162 µM); 0.608 in the experiment with CX-5461 + Decitabine (first compound 1 µM); 1.08 in the experiment with IMD-0354 + Navitoclax (first compound 0.04 µM); 0.952 with IMD-0354 + Navitoclax (first compound 0.1265 µM). Further, the relative viability with IMD-0354 + Navitoclax (first compound 0.4 µM) was 0.612; with IMD-0354 + Navitoclax (first compound 1.265 µM), 0.174; with IMD-0354 + Navitoclax (first compound 4 µM), 0.113; with IMD-0354 + Decitabine (first compound 0.04 µM) it was 0.883; with IMD-0354 + Decitabine (first compound 0.1265 µM), 0.801; with IMD-0354 + Decitabine (first compound 0.4 µM), 0.636. Also, the relative viability was found to be 0.294 in the experiment with IMD-0354 + Decitabine (first compound 1.265 µM) and 0.347 with IMD-0354 + Decitabine (first compound 4 µM).

On to NCI-H3122, for which the relative viability with CX-5461 + Foretinib (first compound 0.01 µM) was found to be 0.915; in the experiment with CX-5461 + Foretinib (first compound 0.03162 µM), 0.906; with CX-5461 + Foretinib (first compound 0.1 µM), 0.941; with CX-5461 + Foretinib (first compound 0.3162 µM), 0.929; with CX-5461 + Foretinib (first compound 1 µM), 0.974; with CX-5461 + Decitabine (first compound 0.01 µM), 0.407. Further, the relative viability worked out at 0.387 in the experiment with CX-5461 + Decitabine (first compound 0.03162 µM); 0.354 in the experiment with CX-5461 + Decitabine (first compound 0.1 µM); 0.515 with CX-5461 + Decitabine (first compound 0.3162 µM); 0.417 with CX-5461 + Decitabine (first compound 1 µM); 1.01 with IMD-0354 + Navitoclax (first compound 0.04 µM); 1.09 with IMD-0354 + Navitoclax (first compound 0.1265 µM). The relative viability with IMD-0354 + Navitoclax (first compound 0.4 µM) worked out at 0.829; with IMD-0354 + Navitoclax (first compound 1.265 µM), 0.987; in the experiment with IMD-0354 + Navitoclax (first compound 4 µM) it was 0.155; with IMD-0354 + Decitabine (first compound 0.04 µM) it was 0.46; with IMD-0354 + Decitabine (first compound 0.1265 µM), 0.455; with IMD-0354 + Decitabine (first compound 0.4 µM), 0.408. Besides, the relative viability with IMD-0354 + Decitabine (first compound 1.265 µM) stood at 0.469; in the experiment with IMD-0354 + Decitabine (first compound 4 µM) it was 0.227.
